Assay results taken from ChEMBL document CHEMBL4765344, “Expanding the anticancer potential of 1,2,3-triazoles via simultaneously targeting Cyclooxygenase-2, 15-lipoxygenase and tumor-associated carbonic anhydrases” (Eur J Med Chem, 2020).

What was measured:
[1] = Toxicity in BALB/c mouse xenografted with human MCF7 cells assessed as body weight at 23 mg/kg, ip administered thrice a week for 28 days measured on day 28 (reference value: 29.8 gms); type: organism-based; details: in vivo, 672 h, time 28 day
[2] = target: Carbonic anhydrase 9 (Homo sapiens, UniProt Q16790); test: Inhibition of human CA9 by stopped-flow carbon dioxide hydration assay
[3] = test system: MCF7; test: Antiproliferative activity against human MCF-7 cells assessed as inhibition of cell growth at 100 microM measured after 72 hrs by SRB assay relative to celecoxib; type: functional; set-up: scale not given: the % may be the effect or the level left
[4] = target: Carbonic anhydrase 2 (Homo sapiens, UniProt P00918); test: Inhibition of human CA2 by stopped-flow carbon dioxide hydration assay
[5] = test system: MCF7; test: Antitumor activity against human MCF7 cells xenografted in BALB/c mouse assessed as reduction in tumor volume at 23 mg/kg, ip administered thrice a week for 28 days by vernier caliper analysis; type: functional; details: time 28 day
[6] = target: Carbonic anhydrase 12 (Homo sapiens, UniProt O43570); test: Inhibition of human CA12 by stopped-flow carbon dioxide hydration assay
Carbonic anhydrase 12, sequence (O43570 whole entry): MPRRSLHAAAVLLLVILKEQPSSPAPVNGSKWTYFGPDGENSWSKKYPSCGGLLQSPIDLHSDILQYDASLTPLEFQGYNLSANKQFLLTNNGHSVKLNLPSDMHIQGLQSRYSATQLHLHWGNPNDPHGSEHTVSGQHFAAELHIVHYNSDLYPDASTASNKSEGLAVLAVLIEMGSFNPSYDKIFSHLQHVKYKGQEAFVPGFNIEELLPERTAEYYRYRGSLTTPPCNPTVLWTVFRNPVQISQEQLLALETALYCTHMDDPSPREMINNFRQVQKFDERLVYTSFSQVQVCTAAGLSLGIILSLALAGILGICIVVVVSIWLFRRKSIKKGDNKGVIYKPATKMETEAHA

[7] = target: T1, Prostaglandin G/H synthase 1 (Ovis aries, UniProt P05979); test: Inhibition of ovine COX1 by colorimetric analysis
T1 sequence (P05979 whole entry): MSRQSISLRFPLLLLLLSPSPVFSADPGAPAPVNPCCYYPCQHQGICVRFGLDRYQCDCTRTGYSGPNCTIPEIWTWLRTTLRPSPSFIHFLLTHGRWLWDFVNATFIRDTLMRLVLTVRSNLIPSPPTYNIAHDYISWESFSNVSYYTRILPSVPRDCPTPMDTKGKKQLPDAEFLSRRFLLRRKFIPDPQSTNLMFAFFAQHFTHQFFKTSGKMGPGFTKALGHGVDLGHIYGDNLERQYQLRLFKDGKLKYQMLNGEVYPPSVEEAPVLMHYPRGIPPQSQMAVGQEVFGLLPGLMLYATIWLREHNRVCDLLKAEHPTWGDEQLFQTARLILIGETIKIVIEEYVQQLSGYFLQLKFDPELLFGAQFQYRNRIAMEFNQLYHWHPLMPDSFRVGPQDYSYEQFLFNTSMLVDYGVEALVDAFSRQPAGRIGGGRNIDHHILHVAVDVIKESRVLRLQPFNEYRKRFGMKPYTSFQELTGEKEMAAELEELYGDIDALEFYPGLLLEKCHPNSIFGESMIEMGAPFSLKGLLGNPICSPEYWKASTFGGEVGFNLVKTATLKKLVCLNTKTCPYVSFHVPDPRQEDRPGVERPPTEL

[8] = test system: MCF7; test: Antiproliferative activity against human MCF-7 cells assessed as cell growth inhibition measured after 72 hrs by SRB assay; type: functional, cell-based; details: MCF7, 72 h
[9] = Toxicity in ip dosed BALB/c mouse measured for 3 days; type: organism-based; details: in vivo, time 3 day
[10] = test system: WI-38; test: Cytotoxicity against human WI-38 cells assessed as reduction in cell viability after 72 hrs by SRB assay; type: cell-based; details: WI-38, 72 h
[11] = test system: HepG2; test: Antiproliferative activity against human HepG2 cells assessed as inhibition of cell growth at 100 microM measured after 72 hrs by SRB assay; type: functional
[12] = Inhibition of soya bean 15-LOX; set-up: species or system Glycine max
[13] = test system: A549; test: Antiproliferative activity against human A549 cells assessed as inhibition of cell growth at 100 microM measured after 72 hrs by SRB assay; type: functional
[14] = target: Carbonic anhydrase 1 (Homo sapiens, UniProt P00915); test: Inhibition of human CA1 by stopped-flow carbon dioxide hydration assay
Carbonic anhydrase 1, sequence (P00915 whole entry): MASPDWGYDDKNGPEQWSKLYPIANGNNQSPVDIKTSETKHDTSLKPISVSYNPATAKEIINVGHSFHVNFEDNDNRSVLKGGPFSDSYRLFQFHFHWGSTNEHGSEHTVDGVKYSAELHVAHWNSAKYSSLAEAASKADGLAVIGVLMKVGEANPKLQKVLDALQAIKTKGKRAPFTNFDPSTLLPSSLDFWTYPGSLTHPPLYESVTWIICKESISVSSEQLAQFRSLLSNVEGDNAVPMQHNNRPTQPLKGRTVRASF

[15] = test system: MCF7; test: Antiproliferative activity against human MCF-7 cells assessed as inhibition of cell growth at 100 microM measured after 72 hrs by SRB assay; type: functional
[16] = test system: MCF7; test: Induction of apoptosis in human MCF7 cells assessed as Bax expression at IC50 by ELISA (reference value: 45.46 +/- 3.6 pg/ml); type: functional
[17] = test system: MCF7; test: Induction of apoptosis in human MCF7 cells assessed as fold change in Bax expression at IC50 by ELISA relative to control; type: functional
[18] = test system: MCF7; test: Induction of apoptosis in human MCF7 cells assessed as fold change in Bcl-2 expression at IC50 by ELISA relative to control; type: functional
[19] = test system: MCF7; test: Induction of cell cycle arrest in human MCF7 cells assessed as accumulation at G0/G1 phase at IC50 measured after 24 hrs by propidium iodide/RNase staining based flow cytometry (reference value: 51.72%); type: functional
[20] = test system: THP-1; test: Cytotoxicity against PMA/LPS-challenged human THP1 cells assessed as reduction in cell viability incubated for 24 hrs by MTS assay; type: functional, cell-based; details: THP-1, 24 h
[21] = test system: MCF7; test: Induction of apoptosis in human MCF7 cells assessed as Bcl-2 expression at IC50 by ELISA (reference value: 7.49 +/- 0.1 ng/ml); type: functional
[22] = test system: MCF7; test: Induction of apoptosis in human MCF-7 cells assessed as total apoptotic cells at IC50 measured after 24 hrs by Annexin V-FITC/propidium iodide staining based flow cytometry (reference value: 0.69%); type: functional
[23] = test system: MCF7; test: Induction of apoptosis in human MCF-7 cells assessed as increase in total apoptotic cells at IC50 measured after 24 hrs by Annexin V-FITC/propidium iodide staining based flow cytometry relative to 5-FU; type: functional
[24] = test system: HT-29; test: Cytotoxicity against human HT-29 cells assessed as reduction in cell viability incubated for 24 hrs by MTS assay; type: functional, cell-based; details: HT-29, 24 h
[25] = test system: MCF7; test: Induction of cell cycle arrest in human MCF7 cells assessed as increase in accumulation at pre-G1 phase at IC50 measured after 24 hrs by propidium iodide/RNase staining based flow cytometry relative to control; type: functional
[26] = test system: MCF7; test: Induction of cell cycle arrest in human MCF7 cells assessed as accumulation at G2/M phase at IC50 measured after 24 hrs by propidium iodide/RNase staining based flow cytometry (reference value: 18.4%); type: functional
[27] = test system: MCF7; test: Induction of cell cycle arrest in human MCF7 cells assessed as accumulation at pre-G1 phase at IC50 measured after 24 hrs by propidium iodide/RNase staining based flow cytometry (reference value: 1.96%); type: functional
[28] = test system: MCF7; test: Induction of apoptosis in human MCF-7 cells assessed as necrotic cells at IC50 measured after 24 hrs by Annexin V-FITC/propidium iodide staining based flow cytometry (reference value: 1.27%); type: functional
[29] = test system: A549; test: Antiproliferative activity against human A549 cells assessed as cell growth inhibition measured after 72 hrs by SRB assay; type: functional, cell-based; details: A549, 72 h
[30] = test system: MCF7; test: Induction of apoptosis in human MCF7 cells assessed as fold change in caspase-9 expression at IC50 by ELISA relative to control; type: functional
[31] = test system: MCF7; test: Induction of apoptosis in human MCF7 cells assessed as caspase-9 expression at IC50 by ELISA (reference value: 1.77 +/- 0.1 ng/ml); type: functional
[32] = test system: MCF7; test: Induction of cell cycle arrest in human MCF7 cells assessed as reduction in accumulation at G0/G1 phase at IC50 measured after 24 hrs by propidium iodide/RNase staining based flow cytometry relative to control; type: functional
[33] = test system: MCF7; test: Induction of apoptosis in human MCF-7 cells assessed as late apoptotic cells at IC50 measured after 24 hrs by Annexin V-FITC/propidium iodide staining based flow cytometry (reference value: […]); type: functional
[34] = test system: HepG2; test: Antiproliferative activity against human HepG2 cells assessed as cell growth inhibition measured after 72 hrs by SRB assay; type: functional, cell-based; details: HepG2, 72 h
[35] = test system: MCF7; test: Induction of cell cycle arrest in human MCF7 cells assessed as accumulation at S phase at IC50 measured after 24 hrs by propidium iodide/RNase staining based flow cytometry (reference value: 29.88%); type: functional
[36] = test system: MCF7; test: Induction of cell cycle arrest in human MCF7 cells assessed as increase in accumulation at G2/M phase at IC50 measured after 24 hrs by propidium iodide/RNase staining based flow cytometry relative to control; type: functional
[37] = test system: MCF7; test: Induction of apoptosis in human MCF-7 cells assessed as early apoptotic cells at IC50 measured after 24 hrs by Annexin V-FITC/propidium iodide staining based flow cytometry (reference value: 0.4%); type: functional

Cc1c(-c2nn(-c3ccccc3)cc2/C=N/O)nnn1-c1ccc(C(=O)O)cc1
Activity [1]: 27.3 g | Ki [2]: 2.25 µM | Activity [3]: 80% | Ki [4]: 0.239 µM | Activity [5]: 0.45 cm3 | Ki [6]: 0.154 µM | IC50 [7]: 12.4 µM | IC50 [8]: 3.2 µM | LD50 at 72 h [9]: 61.7 mg/kg | IC50 [10]: 379 µM | inhibition at 100 µM [11]: 7.68% | IC50 [12]: 1.29 µM | inhibition at 100 µM [13]: 12.3% | Ki [14]: 4.63 µM | inhibition at 100 µM [15]: 83.4%

C/C(=N\Nc1nc(-c2ccc(Cl)cc2)cs1)c1nnn(-c2ccc(Cl)cc2)c1C
Activity [16]: 227.2 pg/mL | Ki [2]: > 100 µM | fold change (FC) [17]: 4.99 | fold change (FC) [18]: 0.54 | Activity [19]: 36.41% | IC50 [20]: 133 µM | Activity [21]: 4.02 ng/mL | Ki [4]: > 100 µM | Activity [22]: 17.17% | Activity [23]: 70% | IC50 [24]: 36.5 µM | Ki [6]: > 100 µM | IC50 [7]: 11.9 µM | IC50 [8]: 2.69 µM | fold change (FC) [25]: 9.9 | Activity [26]: 38.7% | IC50 [10]: 379 µM | Activity [27]: 19.36% | Activity [28]: 2.19% | IC50 [29]: 8.9 µM | inhibition at 100 µM [11]: 74.4% | fold change (FC) [30]: 7.36 | IC50 [12]: 1.68 µM | Activity [31]: 13.02 ng/mL | inhibition at 100 µM [13]: 77.5% | fold change (FC) [32]: 1.4 | Ki [14]: > 100 µM | Activity [33]: 11.29% | IC50 [34]: 2.37 µM | inhibition at 100 µM [15]: 91.3% | Activity [35]: 24.89% | fold change (FC) [36]: 2.1 | Activity [37]: 5.88%
